Holding throughout (type): biochemical
The target of experiment [1] is JNK1 (Homo sapiens, UniProt P45983). Put plainly: DELFIA kinase assay, JNK1. Summed up: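 Enzyme (2 nM JNK1) was preincubated 10 min with 0–100 μM compound in HEPES pH 7.3 with 5% DMSO, then reacted 30 min at room temperature with biotinylated GST-ATF2 (6 ug/mL). Final ATP was 7 uM for JNK1, 4 uM for JNK2 and 2 uM for JNK3. Phospho-ATF2 was detected by DELFIA europium fluorescence (ex 340, em 615 nm).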

For experiment [2], the target named is JNK2 (Homo sapiens, UniProt P45984). Put plainly: DELFIA kinase assay, JNK2. The protocol: (§1) Assay DELFIA (Dissociation Enhanced Lanthanide Fluorescence Immuno-Assay) Assay:
(§2) Before initiation of kinase reactions, compounds were pre-incubated with the enzyme for 10 minutes. Pre-incubation reactions contained 50 mM HEPES pH 7.3, 10 mM MgCl2, 1 mM DTT, 75 mM NaCl, 1 mM EDTA, 1 mM EGTA, 0.01% CHAPS, 2 nM JNK1, 6 ug/mL biotinylated GST-ATF2, 0.1 mg/ml BSA, 5% DMSO and 0-100 μM compound in a total volume of 40 μL. After a 10 minute room temperature pre-incubation, 10 μL of 35 μM ATP was added to start the reaction (final concentration of ATP=7 uM). Reactions were incubated at room temperature for 30 minutes. A small aliquot (10 uL) was taken and quenched by adding into 190 uL of DELFIA Assay buffer containing 100 mM EDTA. The amount of phosphate transferred to biotinylated GST-ATF2 was measured using the Dissociation Enhanced Lanthanide Fluorescence Immuno-assay (DELFIA) from Perkin Elmer according to manufacturers protocol. Briefly, biotinylated GST-ATF2 was captured on streptavidin coated plates for 1 hour, washed twice, then incubated for 1 hour with a 1:1000 dilution of rabbit-anti-phospho-ATF2 antibody and a 1:3500 dilution of Europium-labeled anti-rabbit secondary antibody. Free antibody was removed with six washes, Europium was dissociated from the antibody, and Europium fluorescence was measured using an excitation wavelength of 340 nm and an emission wavelength of 615 nm. JNK2 and JNK3 kinase reactions were carried out similarly, with the exception that the final concentration of ATP was 4 uM and 2 uM, respectively.

Experiment [3] concerns the target JNK3 (Homo sapiens, UniProt P53779). The experiment can be described thus: DELFIA kinase assay, JNK3. As to the method: as §1, §2
Where [4] appears, read: DELFIA assay, 2 nM JNK1, 7 uM ATP, 10 min pre-incubation.
The mark [5] stands for this setting: DELFIA, biotinylated GST-ATF2 substrate, 10 minute pre-incubation, final ATP 7 uM.
Setting [6] is: DELFIA, biotinylated GST-ATF2 substrate, final ATP 4 uM.
[7] abbreviates: DELFIA, biotinylated GST-ATF2 substrate, final ATP 2 uM.
The mark [8] stands for this setting: DELFIA assay, 2 nM JNK1, 7 uM ATP, 10 min pre-incubation, second table, read-out: JNK 1 IC50.

Where “and” joins values, the source holds several entries; their conditions need not be identical. Equal values may be shown once. Read-outs that look alike come from different tables or passages of the source. A value given as a limit tells only on which side of the number the result lay.

JNK2, sequence (P45984 whole entry, species assumed): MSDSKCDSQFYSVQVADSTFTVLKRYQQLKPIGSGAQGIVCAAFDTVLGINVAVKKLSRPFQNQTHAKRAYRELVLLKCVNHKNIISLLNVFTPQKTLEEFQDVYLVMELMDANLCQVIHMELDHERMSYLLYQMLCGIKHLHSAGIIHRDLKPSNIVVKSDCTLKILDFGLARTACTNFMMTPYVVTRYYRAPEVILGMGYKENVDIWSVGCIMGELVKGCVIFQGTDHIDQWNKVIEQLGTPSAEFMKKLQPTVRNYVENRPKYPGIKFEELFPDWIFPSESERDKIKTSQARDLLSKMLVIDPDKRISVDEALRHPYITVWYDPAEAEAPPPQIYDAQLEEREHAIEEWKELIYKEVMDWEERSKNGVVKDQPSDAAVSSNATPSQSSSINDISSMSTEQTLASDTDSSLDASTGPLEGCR
JNK1, sequence (P45983 whole entry, species assumed): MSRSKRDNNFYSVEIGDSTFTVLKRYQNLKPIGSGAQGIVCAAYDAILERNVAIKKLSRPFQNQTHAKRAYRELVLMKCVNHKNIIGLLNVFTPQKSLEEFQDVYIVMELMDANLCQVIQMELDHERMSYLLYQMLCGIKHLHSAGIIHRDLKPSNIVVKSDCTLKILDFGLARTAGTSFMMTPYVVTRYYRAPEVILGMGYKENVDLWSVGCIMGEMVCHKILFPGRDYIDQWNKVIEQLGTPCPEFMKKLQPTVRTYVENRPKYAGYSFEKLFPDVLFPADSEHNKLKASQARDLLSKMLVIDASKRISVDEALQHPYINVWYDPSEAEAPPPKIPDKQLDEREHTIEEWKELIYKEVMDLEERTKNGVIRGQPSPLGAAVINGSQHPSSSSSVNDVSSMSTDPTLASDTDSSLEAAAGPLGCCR
JNK3, sequence (P53779 whole entry, species assumed): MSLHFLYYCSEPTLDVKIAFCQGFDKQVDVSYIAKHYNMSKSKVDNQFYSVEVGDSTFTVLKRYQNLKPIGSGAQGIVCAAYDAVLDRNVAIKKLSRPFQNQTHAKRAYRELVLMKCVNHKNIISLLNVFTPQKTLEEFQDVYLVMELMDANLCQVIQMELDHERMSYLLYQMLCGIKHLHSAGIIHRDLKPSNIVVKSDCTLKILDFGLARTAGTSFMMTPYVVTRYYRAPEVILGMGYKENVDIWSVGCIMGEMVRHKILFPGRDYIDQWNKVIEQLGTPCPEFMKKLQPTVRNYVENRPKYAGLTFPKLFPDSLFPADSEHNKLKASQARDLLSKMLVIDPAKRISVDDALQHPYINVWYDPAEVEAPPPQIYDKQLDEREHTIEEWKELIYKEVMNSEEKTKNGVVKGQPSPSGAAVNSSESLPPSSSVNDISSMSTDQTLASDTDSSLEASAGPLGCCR

As usually defined, the IC50 is the concentration at which inhibition is half-maximal. Turning to `CC(C)NC(=O)c1cccc(C(=O)NCc2cnn(-c3cccc(C#N)c3)c2)n1` [Compound 134], the IC50 in experiment [1] (setting [4]) was 15 nM; in experiment [1] (setting [5]), 4 to 19 nM and 4 to 97 nM; in experiment [2] (DELFIA assay), 20 nM; in experiment [3] (DELFIA assay), 20 nM.
For `CC(C)NC(=O)c1cccc(C(=O)NCc2cnn(-c3ccc(C#N)cc3)c2)n1` [Compound 135], the IC50 in experiment [1] (setting [5]) was 4 to 97 nM and 27 nM; in experiment [2] (setting [6]), 48 nM; in experiment [3] (setting [7]), 16 nM.
For the compound `CC(C)NC(=O)c1cccc(C(=O)NCc2cnn(-c3ccc(S(C)(=O)=O)cc3)c2)n1` [Compound 137], the IC50 in experiment [1] (setting [4]) is 13 nM; in experiment [1] (setting [5]) it was 4 to 19 nM and 4 to 97 nM; in experiment [2] (DELFIA assay), 3 nM; in experiment [3] (DELFIA assay) it was 12 nM.
Turning to `CC(C)NC(=O)c1cccc(C(=O)NCc2cnn(-c3cccc(C(F)(F)F)c3)c2)n1` [Compound 140], the IC50 in experiment [1] (setting [5]) is 4 to 19 nM and 4 to 97 nM and 13 nM; in experiment [2] (setting [6]), 11 nM; in experiment [3] (setting [7]), 9 nM.
Take `CC(C)NC(=O)c1cccc(C(=O)NCc2cnn(-c3ccc4ncccc4c3)c2)n1` [Compound 142]: the IC50 is 4 to 19 nM and 4 to 97 nM and 6 nM in experiment [1] (setting [5]); 8 nM in experiment [2] (setting [6]); 9 nM in experiment [3] (setting [7]).
For `CC(C)NC(=O)c1cccc(C(=O)NCc2cnn(-c3ccc(S(=O)(=O)N(C)C)cc3)c2)n1` [Compound 152], the IC50 is 4 to 19 nM and 4 to 97 nM and 11 nM in experiment [1] (setting [5]); 8 nM in experiment [2] (setting [6]); 9 nM in experiment [3] (setting [7]).
Take `CC(C)NC(=O)c1cccc(C(=O)NCc2cnn(-c3cnc4cccnc4c3)c2)n1` [Compound 222]: the IC50 in experiment [1] (setting [4]) was 18 nM; in experiment [1] (setting [8]), 18 nM; in experiment [1] (setting [5]) it was 4 to 97 nM and 4 to 19 nM; in experiment [2] (DELFIA assay) it was 8 nM; in experiment [3] (DELFIA assay), 10 nM.
For `Cc1nc2ccc(-n3cc(CNC(=O)c4cccc(C(=O)NC(C)C)n4)cn3)cc2n1C` [Compound 233], the IC50 in experiment [1] (setting [4]) is 17 nM; in experiment [1] (setting [8]), 17 nM; in experiment [1] (setting [5]), 4 to 19 nM and 4 to 97 nM; in experiment [2] (DELFIA assay) it was 11 nM; in experiment [3] (DELFIA assay), 12 nM.
Regarding `CCOC(=O)N1CCC(NC(=O)c2cccc(N(C)CCc3ccncc3)n2)CC1` [Compound 394], the IC50 in experiment [1] (setting [5]) was more than 1000 nM.
Still for that read-out and setting: in the case of `CCOC(=O)N1CCC(NC(=O)c2cccc(NCC3CCNCC3)n2)CC1` [Compound 395] it was more than 1000 nM; in that of `CCOC(=O)N1CCC(NC(=O)c2cccc(Nc3ccccn3)n2)CC1` [Compound 396], more than 1000 nM.
In the case of `CCOC(=O)N1CCC(NC(=O)c2cccc(NC(C)=O)n2)CC1` [Compound 399], in experiment [1] (setting [5]), the half-maximal inhibitory concentration (IC50) was > 1000 nM and 1030 to 10000 nM.
`CCOC(=O)Nc1cccc(C(=O)NC2CCN(C(=O)OCC)CC2)n1` [Compound 400]: the IC50 in experiment [1] (setting [5]) was > 1000 nM and 1030 to 10000 nM.
On to `CCOC(=O)N1CCC(NC(=O)c2cccc(NC(=O)Cc3ccc4c(c3)OCO4)n2)CC1` [Compound 401], for which the IC50 in experiment [1] (setting [5]) was > 1000 nM and 1030 to 10000 nM.
With `CCOC(=O)N1CCC(NC(=O)c2cccc(NC(=O)Cc3ccc(S(C)(=O)=O)cc3)n2)CC1` [Compound 402], the IC50 in experiment [1] (setting [5]) was > 1000 nM and 1030 to 10000 nM.
`C[C@@H](CO)NC(=O)c1cc(-c2ccccc2)cc(C(=O)NCc2ccc(S(C)(=O)=O)cc2)n1` [Compound 407]: the IC50 in experiment [1] (setting [5]) is > 1000 nM and 1030 to 10000 nM.
On to `CCNC(=O)c1cc(Cl)cc(C(=O)NCc2ccc(S(C)(=O)=O)cc2)n1` [Compound 408], for which the half-maximal inhibitory concentration (IC50) in experiment [1] (setting [5]) was > 1000 nM and 1030 to 10000 nM.
On the same count and under the same terms, in the case of `CCOC(=O)N1CCC(NC(=O)c2cc(-c3cccs3)cc(C(=O)NCc3ccc(S(C)(=O)=O)cc3)n2)CC1` [Compound 414] it was > 1000 nM and 1030 to 10000 nM; in that of `CCNC(=O)c1cc(-c2cccs2)cc(C(=O)NCc2ccc(S(C)(=O)=O)cc2)n1` [Compound 415], > 1000 nM and 1030 to 10000 nM.
As for `C[C@@H](CO)NC(=O)c1cc(-c2cccs2)cc(C(=O)NCc2ccc(S(C)(=O)=O)cc2)n1` [Compound 416], the IC50 in experiment [1] (setting [5]) is > 1000 nM and 1030 to 10000 nM.
Still for that read-out and setting: in the case of `C[C@H](CO)NC(=O)c1cc(-c2cccs2)cc(C(=O)NCc2ccc(S(C)(=O)=O)cc2)n1` [Compound 417] it was > 1000 nM and 1030 to 10000 nM.
For `CC(C)NC(=O)c1cccc(C(=O)NCC2CCN(c3cccc(C#N)c3)CC2)n1` [Compound 419], in experiment [1] (setting [5]), the IC50 is > 1000 nM and 1030 to 10000 nM.
Same read-out and setting: the figure for `CC(C)NC(=O)c1cccc(C(=O)NCC2CCN(c3ccc(C#N)cc3)CC2)n1` [Compound 420] is > 1000 nM and 1030 to 10000 nM; for `CC(C)NC(=O)c1cccc(C(=O)NCC2CCN(c3cccc(S(C)(=O)=O)c3)CC2)n1` [Compound 421] it is > 1000 nM and 1030 to 10000 nM.
As to `CC(C)NC(=O)c1cccc(C(=O)NCC2CCN(c3ccc(S(C)(=O)=O)cc3)CC2)n1` [Compound 422], the IC50 in experiment [1] (setting [5]) was > 1000 nM and 1030 to 10000 nM.
`Cc1cccc(-n2cc(CNC(=O)c3ccc(F)c(C(=O)NC(C)C)n3)cn2)c1` [Compound 428] gave an IC50 in experiment [1] (setting [5]) of 4 to 97 nM.
`Cc1cccc(-n2cc(CNC(=O)c3nc(C(=O)NC(C)C)ccc3F)cn2)c1` [Compound 429] registered an IC50 in experiment [1] (setting [5]) of 102 to 959 nM.
Consider `CC(C)NC(=O)c1cc(O)cc(C(=O)NCc2cnn(-c3ccc4nccnc4c3)c2)n1` [Compound 436], for which, in experiment [1] (setting [5]), the IC50 lay within 4 to 97 nM.

The values are drawn from patent publication US8278337B2, “Substituted pyridines that are JNK inhibitors” (Merck Sharp & Dohme, priority 2006, dated 2012).
